BigSolDB 2.1

O=C(/C=C/c1ccc(O)c(O)c1)O[C@H](Cc1ccc(O)c(O)c1)C(=O)O
solubility (mole fraction)
Settings | 293.15 K | 298.15 K | 303.15 K | 308.15 K | 313.15 K | 318.15 K
in ethanol | 0.268 | 0.295 | 0.328 | 0.366 | 0.408 | 0.455
in methanol | 0.28 | 0.314 | 0.358 | 0.399 | 0.443 | 0.494
in water | 0.0135 | 0.0151 | 0.0165 | 0.0185 | 0.0209 | 0.0248
